Assay results: paper PMC11503657 (Chemical Science, 2024)

Experiments:
CuAβ1–16 complex = CuAβ1–16 complex (Homo sapiens, UniProt P05067); type: biochemical; conditions: pH 7.4
CuZnAβ1–16 = CuZnAβ1–16 (Homo sapiens, UniProt P05067); type: biochemical; conditions: pH 7.4

ROS production: % of Asc consumption in 30 min (CuAβ1–16 complex): 11.3%
ROS production: % of ROS arrest (CuAβ1–16 complex): 88.7%
ROS production: % of Asc consumption in 30 min (CuZnAβ1–16): 100%
ROS production: % of ROS arrest (CuZnAβ1–16): 0%
SMILES: O=C(O)CN(CCN(CC(=O)O)CC(=O)O)CC(=O)O [EDTA, 2,2′,2′′,2′′′-(ethane-1,2-diyldinitrilo)tetraacetic acid]
